Results published in publication PMC6374029 (Antiviral Research, 2018).

What was measured:
Ebola virus = conditions: in vivo; cited from earlier work
in vitro = conditions: human
[1] = human, in vivo; cited from earlier work
EBOV minigenome = assay type: cell-based, Ebola virus

In the case of `CCN(CC)Cc1cc(Nc2ccnc3cc(Cl)ccc23)ccc1O` [Amodiaquine, amodiaquine], the case mortality (Ebola virus) is listed as 50%, the CC50 (in vitro) is listed as 79 µM and the Selectivity index (Huh7 cells) is listed as 37.

In the case of `CCNCc1cc(Nc2ccnc3cc(Cl)ccc23)ccc1O` [desethyl-amodiaquine], the half-life [1] is given as 220 to 432 h.

For `COc1c(C)c2c(c(O)c1C/C=C(\C)CCC(=O)O)C(=O)OC2` [mycophenolic acid], the “activity of EBOV minigenome (firefly luciferase normalized to renilla)” value (EBOV minigenome) was “effectively blocked the signal from the minigenome”.
